“Also recorded” adds a separate entry of the source.
Test system: NF-κB
Assay: NF-κB electrophoretic mobility shift assay (EMSA) on cultured, treated milk cells from chronic mastitis-affected cows
Assay type: cell-based, Holstein-Friesian cows
Conditions: protein extraction 3 hours after treatment, versus untreated cells
Procedure: Isolated milk cells were centrifuged for 10 minutes at 300 g and the pellet was resuspended in 600 μl lysis buffer (0.1% nonidet P-40; 10 mM Tris HCl, pH 7.4; 10 mM NaCl; 3 mM MgCl2; 1 mM EDTA; 2 mM orthovanadate; 1 mM diisopropyl fluorophosphates (DFP); 10 μg/ml leupeptin; 10 μg/ml aprotinin). The cells were vortexed 15 seconds, kept on ice for 5 minutes, and centrifuged for 10 minutes at 300 g. The resulting pellet was resuspended in a KCl buffer (10 mM Hepes, pH 7.4; 400 mM KCl; 10% Glycerol; 2 mM EDTA; 1 mM Ethylene glycol-bis[β-aminoethyl ether]-N, N,N′N′-tetraacetic acid (EGTA); 1% nonidet P-40, 1 mM dithiothreitol (DTT); 2 mM orthovanadate; 10 μg/ml leupeptin; 10 μg/ml aprotinin; 1 mM DFP) and kept at 4° C. for 10 minutes before centrifugation for 15 minutes at 12,000 g. The supernatant was diluted three times and stored at −80° C. until use.
Binding reactions were performed for 30 minutes at room temperature with 5 μg of total protein extracts in 20 mM Hepes (pH 7.9), 10 mM KCl, 0.2 mM EDTA, 20% (v/v) glycerol, 1% (w/v) acetylated bovine serum albumin, 3 μg of poly(dI-dC) (Amersham Pharmacia Biotech, Aylesbury, U.K.), 1 mM DTT (dithiothreitol), 1 mM phenylmethylsulfonyl fluoride, and 100,000 cpm of ^32P-labeled double-stranded oligonucleotide probes. Probes were prepared by annealing the appropriate single-stranded oligonucleotides (Eurogentech, Liège, Belgium) at 65° C. for 10 minutes in 10 mM Tris, 1 mM EDTA, and 10 mM NaCl, followed by slow cooling to room temperature. The probes were labeled by end-filling with the Klenow fragment of E. coli DNA polymerase I (Roche, Mannheim, Germany), with [^32P]dATP and [^32P]dCTP (Dupont-New England Nuclear, Les Ulis, Fance). Labeled probes were purified by spin chromatography on Sephadex G-25 columns (Roche). […] The amount of specific complexes was determined by photodensitometry of the autoradiography. […] The NF-κB activity was assessed by photodensitometry of the specific bands. […]

SMILES | NF-κB activity (DNA-binding activity by EMSA, photodensitometry) (15d-PGJ2 at 40 μM, 50 μM, 60 μM and 80 μM) | NF-κB activity (DNA-binding activity by EMSA, photodensitometry) (gliotoxine at 1 μl/ml) | NF-κB activity (DNA-binding activity by EMSA, photodensitometry) (gliotoxine at 1 μl/ml, listed as gliotoxine)
CCCCCC=CC=C1C(=O)C=C[C@@H]1CC=CCCCC(=O)O [15d-PGJ2, 15-deoxy-Δ.12,14-prostaglandin J2] | reduced NF-κB activity; also recorded: inhibit NF-κB activation |  | 
CN1C(=O)[C@]23CC4=CC=C[C@H](O)[C@H]4N2C(=O)[C@@]1(CO)SS3 [glyotoxine, gliotoxin] |  | reduced NF-κB activity | inhibit NF-κB activation

Source: patent publication US20060240011A1, “Use of nf-kappa b inhibitors for the treatment of mastitis” (priority 2002, published 2006)
